Source: PMC5640650, “NatD promotes lung cancer progression by preventing histone H4 serine phosphorylation to activate Slug expression” (Nature Communications, 2017)

Experiments:
LLC cells [1] = test: Expression of EMT genes, LLC cells; format: cell-based, murine; conditions: vs Scr
Protocol: Cellular proteins were extracted by RIPA lysis buffer at high salt concentration (420 mM NaCl), and western blot analysis was performed in accordance with standard protocols. Scans of enhanced chemiluminescence (ECL) films showing uncropped blots are presented in Supplementary Fig. 10. […]
Total RNA from tissue samples and cultured cells was extracted using TRIzol reagent (Invitrogen). cDNAs were synthesized with a HiScript 1st Strand cDNA Synthesis Kit (Vazyme Biotech, China). Quantitative RT-PCR was performed using a FastStart Universal SYBR Green Master (Roche) according to the manufacturer’s instructions in a Rotor-Gene 6000 (Corbett Research) in a final volume of 20 μl. […]
Representative blots from three independent experiments. […] (bottom) Cell migration and invasion expressed as a percentage of Scr control. […]
Results are shown as mean ± s.d. from 5 mice; two-tailed Student’s t-test, **P<0.01 compared to Scr control. (e) Quantitative real-time PCR analysis of mRNA levels of NatD and key EMT-related genes in Scr control and NatD-KD LLC cells normalized to GAPDH. […]

LLC cells [2] = test: Orthotopic implantation in C57BL/6 mice, LLC cells; format: in vivo, murine; conditions: pleural cavity, 14 days, n = 5, vs Scr
Protocol: All animal care and handling procedures were performed in accordance with the National Institutes of Health Guide for the Care and Use of Laboratory Animals, and were approved by the Institutional Review Board of Nanjing University (Nanjing, China). Female SCID mice and C57BL/6 mice (6–8 week old) were purchased from the Model Animal Research Center of Nanjing University (Nanjing, China), and were maintained under specific pathogen-free conditions at Nanjing University. The sample size was chosen with adequate power on the basis of the literature and our previous experience[46] and for each experiment it is indicated in the figure legend. Prior to carrying out the experiment, mice were randomly assigned to two different treatment groups (NatD-KD or Scr). For xenograft studies, 1 × 10^6 cells were resuspended in 100 µl PBS and injected into the lateral tail vein. Lung nodules and progression were monitored and quantified using the bioluminescence system (Caliper IVIS Lumina XR) or by counting under a dissecting microscope. […] Mice were killed at day 28 or day 30 to collect lungs, and lung nodules in serial sections were quantified microscopically. […] Lung nodules and progression were monitored and quantified using the bioluminescence system (Caliper IVIS Lumina XR). Mice were killed at day 14 or day 21 to collect lungs, and lung nodules in serial sections were quantified microscopically. […]

LLC cells [3] = test: Transwell migration and invasion assay, LLC cells; format: cell-based, murine; conditions: LLC cells in vitro, vs Scr

NatD-KD2: Human NatD shRNA KD2: 5′-GGTTGAATGTCTCCATTGA-3′, lentiviral (shRNA lentiviral)
expression of E-cadherin (LLC cells [1]): increased the expression | expression of Slug, N-cadherin, and Vimentin (LLC cells [1]): decreased the expression | migration and invasion, orthotopic model (LLC cells [2]): significantly reduced | migratory and invasive capabilities (LLC cells [3]): significantly decreased
